Series [1] has as its target T1, Voltage-gated inwardly rectifying potassium channel KCNH2 (Homo sapiens, UniProt Q12809).
Series [2] deals with HCT-116. Put plainly: Antiproliferative activity against human HCT116 cells expressing HDAC after 72 hrs. In kind it is functional, cell-based. As to conditions: HCT-116, 72 h.
The next series deals with Histone deacetylase 1 (Homo sapiens, UniProt Q13547). Nature of the series: Inhibition of C-terminal FLAG-tagged human HDAC1 overexpressed in mammalian cells by plate reader method. In kind it is cell-based.
Histone deacetylase 1, sequence (Q13547 whole entry): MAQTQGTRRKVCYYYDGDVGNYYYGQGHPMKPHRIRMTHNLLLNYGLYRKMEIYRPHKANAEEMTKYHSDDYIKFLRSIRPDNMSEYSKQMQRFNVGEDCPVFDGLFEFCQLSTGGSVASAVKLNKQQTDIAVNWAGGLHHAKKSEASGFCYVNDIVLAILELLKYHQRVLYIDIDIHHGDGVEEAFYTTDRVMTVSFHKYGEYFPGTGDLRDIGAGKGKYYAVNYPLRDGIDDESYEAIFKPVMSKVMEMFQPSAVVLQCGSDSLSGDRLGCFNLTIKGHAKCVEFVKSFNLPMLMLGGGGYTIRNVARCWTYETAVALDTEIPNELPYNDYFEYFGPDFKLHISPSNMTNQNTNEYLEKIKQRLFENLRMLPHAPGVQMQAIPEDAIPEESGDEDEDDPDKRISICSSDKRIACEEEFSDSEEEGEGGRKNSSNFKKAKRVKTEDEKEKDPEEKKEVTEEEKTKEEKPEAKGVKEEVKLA
A further series has as its target Histone deacetylase 3 (Homo sapiens, UniProt O15379). Nature of the series: Inhibition of C-terminal FLAG-tagged human HDAC3 overexpressed in mammalian cells by plate reader method. In kind it is cell-based.
The test system of series [3] is HCT-116. Nature of the series: Antiproliferative activity against human HCT116 cells expressing HDAC after 96 hrs. It is filed as functional, cell-based. The note with it: for IC50: HCT-116, 96 h.
Series [4] is described as follows: Half life in rat plasma. In kind it is ADME, organism-based.
Series [5] can be described thus: Clearance in rat plasma. In kind it is ADME, organism-based.
The species named for the next series is Homo sapiens. Nature of the series: Selectivity ratio of IC50 for C-terminal FLAG-tagged human HDAC3 to IC50 C-terminal FLAG-tagged human HDAC1.
The nature of series [6]: Volume of distribution in rat plasma. It is filed as ADME, organism-based.
Series [7] is described as follows: Bioavailability in rat plasma. In kind it is ADME, organism-based.
Series [8] is described as follows: Half life in rat at 2 mg/kg, iv. Further details: dose 2 mg/kg, route intravenous. In kind it is ADME, organism-based. The note with it: in vivo.
Series [9] deals with T1, Voltage-gated inwardly rectifying potassium channel KCNH2. Put plainly: Inhibition of human ERG at < 10 uM.
A short description of series [10]: Volume of distribution at steady state in dog at 0.5 mg/kg, iv. In kind it is ADME, organism-based, Canis lupus familiaris. As to conditions: in vivo, read-out: Vdss. The arrangement: dose 0.5 mg/kg, route intravenous.
Series [11] can be described thus: Half life in dog at 0.5 mg/kg, iv. In kind it is ADME, organism-based, Canis lupus familiaris. The arrangement: dose 0.5 mg/kg, route intravenous. As to conditions: in vivo.
The nature of series [12]: Oral bioavailability in dog at 1 mg/kg, po. It is filed as ADME, organism-based, Canis lupus familiaris. The note with it: in vivo.
The nature of series [13]: Oral bioavailability in rat at 4 mg/kg. As to conditions: in vivo. It is filed as ADME, organism-based.
Series [14] in a line: Clearance in rat at 2 mg/kg, iv. It is filed as ADME, organism-based. The note with it: in vivo. The arrangement: dose 2 mg/kg, route intravenous.
A short description of series [15]: Inhibition of calcium ion channel at < 10 uM.
Series [16] in a line: Volume of distribution at steady state in rat at 2 mg/kg, iv. The note with it: in vivo, read-out: Vdss. It is filed as ADME, organism-based. The arrangement: dose 2 mg/kg, route intravenous.
A short description of series [17]: Increase in acetylated H2B/Total H2B ratio in acute in-vivo HCT116 xenograft model at 25 mg/kg, ip. It is filed as functional. As to conditions: route intraperitoneal.
A short description of series [18]: Clearance in dog at 0.5 mg/kg, iv. In kind it is ADME, organism-based, Canis lupus familiaris. The arrangement: dose 0.5 mg/kg, route intravenous. The note with it: in vivo.

29 compounds from ChEMBL document CHEMBL1136848, “Parallel medicinal chemistry approaches to selective HDAC1/HDAC2 inhibitor (SHI-1:2) optimization” (Bioorg Med Chem Lett, 2009) can be followed below.

Activity calls are given as the source filed them. The rule behind the calls is not given here.

By IC50 is commonly meant the concentration that inhibits the measured activity by half. In general, half-life refers to how long it takes for the measured level to halve. A lower half-life goes with rapid decline. The term clearance denotes a measure of how efficiently the substance is removed, as volume per time. A higher clearance goes with efficient removal. For orientation: bioavailability means dose-corrected exposure relative to a reference, in per cent.

T1 sequence (Q12809 whole entry): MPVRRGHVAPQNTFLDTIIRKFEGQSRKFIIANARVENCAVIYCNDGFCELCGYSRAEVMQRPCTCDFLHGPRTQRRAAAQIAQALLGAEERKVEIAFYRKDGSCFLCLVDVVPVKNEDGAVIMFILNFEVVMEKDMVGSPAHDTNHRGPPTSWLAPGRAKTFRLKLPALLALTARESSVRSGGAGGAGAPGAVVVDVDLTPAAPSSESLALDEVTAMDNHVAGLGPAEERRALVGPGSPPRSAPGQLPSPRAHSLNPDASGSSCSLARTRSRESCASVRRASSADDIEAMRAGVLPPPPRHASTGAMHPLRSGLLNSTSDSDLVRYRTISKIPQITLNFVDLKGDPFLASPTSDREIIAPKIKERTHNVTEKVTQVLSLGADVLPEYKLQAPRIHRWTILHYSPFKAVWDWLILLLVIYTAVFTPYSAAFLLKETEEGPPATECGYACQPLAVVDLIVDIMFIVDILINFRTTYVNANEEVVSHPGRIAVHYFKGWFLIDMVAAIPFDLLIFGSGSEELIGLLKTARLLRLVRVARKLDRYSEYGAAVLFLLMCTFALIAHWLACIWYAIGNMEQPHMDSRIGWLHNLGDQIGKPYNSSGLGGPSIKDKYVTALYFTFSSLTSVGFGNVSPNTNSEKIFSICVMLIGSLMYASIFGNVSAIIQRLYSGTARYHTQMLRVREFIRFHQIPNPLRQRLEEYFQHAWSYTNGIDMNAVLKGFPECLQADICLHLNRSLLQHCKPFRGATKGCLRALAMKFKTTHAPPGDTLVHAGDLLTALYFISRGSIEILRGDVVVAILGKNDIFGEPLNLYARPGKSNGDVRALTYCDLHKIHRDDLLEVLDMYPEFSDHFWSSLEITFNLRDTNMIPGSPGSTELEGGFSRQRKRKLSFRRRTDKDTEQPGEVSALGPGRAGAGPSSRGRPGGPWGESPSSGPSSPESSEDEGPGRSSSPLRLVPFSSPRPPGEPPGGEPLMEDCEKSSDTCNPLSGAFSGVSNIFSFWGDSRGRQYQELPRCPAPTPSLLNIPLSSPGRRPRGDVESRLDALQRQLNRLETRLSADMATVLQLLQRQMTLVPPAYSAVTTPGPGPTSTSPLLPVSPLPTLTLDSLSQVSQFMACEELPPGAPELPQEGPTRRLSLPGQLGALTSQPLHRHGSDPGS
Histone deacetylase 3, sequence (O15379 whole entry): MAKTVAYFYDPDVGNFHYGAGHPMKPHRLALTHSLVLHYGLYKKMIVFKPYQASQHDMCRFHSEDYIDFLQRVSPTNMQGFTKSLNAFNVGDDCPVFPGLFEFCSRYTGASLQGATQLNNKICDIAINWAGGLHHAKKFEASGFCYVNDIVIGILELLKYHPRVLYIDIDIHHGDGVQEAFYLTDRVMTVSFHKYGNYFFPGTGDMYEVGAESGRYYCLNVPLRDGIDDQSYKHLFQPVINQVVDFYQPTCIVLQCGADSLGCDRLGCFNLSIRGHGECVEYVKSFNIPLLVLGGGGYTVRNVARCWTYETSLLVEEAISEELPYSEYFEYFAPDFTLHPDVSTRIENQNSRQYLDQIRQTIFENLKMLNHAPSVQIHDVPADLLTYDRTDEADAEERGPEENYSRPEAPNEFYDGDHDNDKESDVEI

For `Nc1ccc(-c2ccccc2F)cc1NC(=O)c1ccc(CN2CCC3(CCCN3)CC2)cc1`, the concentration for half-maximal inhibition (IC50) in series [1] came out at 183 nM; in the series with HCT-116 [2], 470 nM; on Histone deacetylase 1, 16 nM; against Histone deacetylase 3, 17400 nM.
As to `O=C(NO)c1ccc(CNCCc2cccc(Cl)c2)cc1`, half-maximal inhibition on Histone deacetylase 1 (IC50) required 1010 nM.
`O=C(Nc1cc(-c2ccccc2)ccc1O)c1ccc(CNCCc2ccccc2)cc1`: the outcome in the series with HCT-116 [3] was inactive.
On to `Nc1ccc(-c2ccc(F)cc2)cc1NC(=O)c1ccc(C(=O)N2CCC3(CCCN3)CC2)cc1`, for which the values for the IC50 in the series on HCT-116 [2], against Histone deacetylase 1 and against Histone deacetylase 3 were 138 nM, 12 nM and 3200 nM, respectively.
In turn, `O=C(Nc1cc(-c2ccccc2)ccc1O)c1ccc(CNc2ccncc2)cc1` showed an IC50 in the series on HCT-116 [3] of 1740 nM.
Consider `CN(Cc1ccc(C(=O)Nc2cc(-c3ccccc3)ccc2N)cc1)c1ccncc1`, for which the results for the concentration for half-maximal inhibition (IC50) in the series on HCT-116 [2] and on Histone deacetylase 3 were 3610 nM and 5380 nM, respectively.
With `Nc1ccc(-c2ccsc2)cc1NC(=O)c1ccc(CN2CCC3(CCCN3)CC2)cc1`, the IC50 came to 73 nM in the series on HCT-116 [2], 8 nM against Histone deacetylase 1 and 8710 nM against Histone deacetylase 3.
Consider `Nc1ccc(-c2cccs2)cc1NC(=O)c1ccc(CN2CCC3(CCCN3)CC2)cc1`, for which the concentration for half-maximal inhibition (IC50) in series [1] is 1600 nM; in the series on HCT-116 [2], 82 nM; against Histone deacetylase 1, 4 nM; on Histone deacetylase 3, 9620 nM.
In the case of `CC(NCc1ccc(C(=O)Nc2cc(-c3ccccc3)ccc2O)cc1)c1ccncc1` (stereo unspecified), the IC50 against Histone deacetylase 1 turned out to be 13 nM; in the series on HCT-116 [3], 1820 nM.
`O=C(NO)c1ccc(CNC2CCCCC2)cc1` returned a concentration for half-maximal inhibition (IC50) against Histone deacetylase 1 of 24100 nM.
On to `Nc1ccc(-c2ccccc2)cc1NC(=O)c1ccc(CN2CCC3(CCCN3)CC2)cc1`, for which the half-life in series [4] was 8 h. In [5], this compound gave a clearance of 45 mL/min/kg. The Ratio IC50 in the series filed under Homo sapiens is 2000. Moreover, the values for the concentration for half-maximal inhibition (IC50) in the series with HCT-116 [2], against Histone deacetylase 1 and on Histone deacetylase 3 were 118 nM, 8 nM and 16500 nM, respectively. Also, in series [6], the Vd is 22 L/kg. This compound also yielded a bioavailability in [7] of 70%.
`O=C(Nc1cc(Cl)ccc1O)c1ccc(CNc2ccncc2)cc1` had a concentration for half-maximal inhibition (IC50) against Histone deacetylase 1 of 5030 nM. In the series on HCT-116 [3], the outcome was inactive.
For `CC(C)CNCc1ccc(C(=O)Nc2cc(-c3ccccc3)ccc2O)cc1`, the outcome in the series on HCT-116 [3] was inactive.
With `O=C(NO)c1ccc(CNCc2cccc(Cl)c2)cc1`, half-maximal inhibition on Histone deacetylase 1 (IC50) required 348 nM.
Compound `O=C(Nc1cc(F)ccc1O)c1ccc(CNc2ccncc2)cc1` had an IC50 against Histone deacetylase 1 of 2010 nM. In addition, the result in the series on HCT-116 [3] was inactive.
Regarding `Nc1ccc(-c2cccs2)cc1NC(=O)c1ccc(C(=O)N2CCC3(CCCN3)CC2)cc1`, the 50% inhibitory concentration (IC50) in series [1] came out at 25100 nM; in the series with HCT-116 [2] it was 70 nM; against Histone deacetylase 1 it was 11 nM; against Histone deacetylase 3, 4330 nM.
Take `Nc1ccc(-c2ccccc2)cc1NC(=O)c1ccc(CNc2ccncc2)cc1`: the figures for the half-maximal inhibitory concentration (IC50) with HCT-116 [2] and against Histone deacetylase 3 were 1740 nM and 6390 nM, respectively.
For the compound `Nc1ccc(-c2ccccc2F)cc1NC(=O)c1ccc(C(=O)N2CCC3(CCCN3)CC2)cc1`, the IC50 was 290 nM in the series with HCT-116 [2], 11 nM against Histone deacetylase 1 and greater than 50000 nM against Histone deacetylase 3.
In turn, `O=C(Nc1cc(Br)ccc1O)c1ccc(CNc2ccncc2)cc1` yielded an IC50 at Histone deacetylase 1 of 5220 nM. The result in the series on HCT-116 [3] was inactive.
As to `O=C(Nc1cc(-c2ccccc2)ccc1O)c1ccc(CNCc2cccnc2)cc1`, the IC50 in the series on HCT-116 [3] came to 1360 nM.
As for `Nc1ccc(-c2ccccc2)cc1NC(=O)c1ccc(CN2CCC3(CCNC3)CC2)cc1`, the results for the IC50 in the series with HCT-116 [2], against Histone deacetylase 1 and on Histone deacetylase 3 were 309 nM, 33 nM and 6930 nM, respectively.
In turn, `Cc1ccc(O)c(NC(=O)c2ccc(CNc3ccncc3)cc2)c1` returned an IC50 against Histone deacetylase 1 of 20600 nM. Further, the outcome in the series with HCT-116 [3] was inactive.
In the case of `COc1cccc(CNCc2ccc(C(=O)NO)cc2)c1`, at Histone deacetylase 1, the IC50 was 477 nM.
Compound `O=C(NO)c1ccc(CNc2ccc(Cl)cc2)cc1` gave an IC50 against Histone deacetylase 1 of 1620 nM.
As for `Nc1ccc(-c2ccccc2)cc1NC(=O)c1ccc(C(=O)N2CCC3(CCCN3)CC2)cc1`, the half-life is 7 h in series [8] and 8.5 h in [11]. Besides, the Activity result in series [9] is “Not Active”. The values for the Vd in [10] and in series [16] were 5.1 L/kg and 14 L/kg, respectively. For the same compound, the bioavailability turned out to be 4% in series [12] and 17% in [13]. Besides, the concentration for half-maximal inhibition (IC50) in [1] was found to be 12400 nM; in the series with HCT-116 [2], 103 nM; on Histone deacetylase 1, 8 nM; on Histone deacetylase 3, 5100 nM. Also, the clearance in series [14] was 26 mL/min/kg; in [18], 8.2 mL/min/kg. Moreover, the outcome in series [15] was inactive. In series [17], the “fold change (FC)” value stood at 3.
As for `Nc1ccc(-c2cccc(F)c2)cc1NC(=O)c1ccc(CN2CCC3(CCCN3)CC2)cc1`, the 50% inhibitory concentration (IC50) amounted to 1070 nM with HCT-116 [2], 47 nM against Histone deacetylase 1 and 5730 nM on Histone deacetylase 3.
The compound `COc1ccc(O)c(NC(=O)c2ccc(CNc3ccncc3)cc2)c1` had an IC50 at Histone deacetylase 1 of 7960 nM. The outcome with HCT-116 [3] was inactive.
On to `Nc1ccc(-c2ccc(F)cc2)cc1NC(=O)c1ccc(CN2CCC3(CCNC3)CC2)cc1`, for which the concentration for half-maximal inhibition (IC50) in [1] came out at 237 nM; with HCT-116 [2], 276 nM; on Histone deacetylase 1, 13 nM; against Histone deacetylase 3 it was 4800 nM.
`O=C(Nc1ccccc1O)c1ccc(CNc2ccncc2)cc1` registered an IC50 on Histone deacetylase 1 of 1570 nM. In addition, the result with HCT-116 [3] was inactive.
